Data on 24 compounds can be found in patent US9000186B2, “Ring-fused heterocyclic derivative” (Kyowa Hakko Kirin Co., Ltd., priority 2011, dated 2015).

Read-outs that look alike come from different tables or passages of the source.

In test [1] the test system is morphine-induced pruritus mice. Nature of the test: Inhibitory effect for pruritus in morphine-induced pruritus mice. The class given is in vivo, male ddY mice. The settings on record: oral, dose of 30 mg/kg or less, 30 minutes before intrathecal morphine (1 nmol/5 μL); scratching counted for 30 minutes. As to the method:
Morphine (1 nmol/5 μL, dissolved in physiological saline) or physiological saline was intrathecally administered between the fifth and sixth lumbar vertebrae of male ddY mice using a microsyringe fitted with a 30-gauge injection needle. Mice administered with only morphine were used as a control group, and mice administered with only physiological saline as a physiological saline-administered group.
After the morphine administration, the number of scratching behavior with the hind legs which observed immediately in the mice was measured for 30 minutes. Because mice show a rapid, continuous scratching behavior in each scratching behavior, a series of such behavior was counted as a single scratching behavior.
The test compounds were administered 30 minutes before the morphine administration. Each test compound was suspended in a 0.5% methylcellulose solution, and orally administered in 10 mL/kg volume.

Test [2] concerns the target T1, human Cav3.2 T-type Ca2+ channel (Homo sapiens, UniProt O95180).
T1 construct: expressed in transfected cells; host or cells: KJMGER8 cells (Namalwa cell-derived cell line)
Nature of the test: Inhibitory effect for intracellular calcium response via Cav3.2 T-type Ca2+ channels (FLIPR Calcium 3 Assay Kit). The format is cell-based. On the technique in general: Calcium flux is commonly read through the fluorescence of an indicator in the cells.

[3] abbreviates: human Cav3.2-expressing KJMGER8 cells (Namalwa-derived), calcium response induced by 5 mmol/L CaCl2, normalised to 3 μmol/L mibefradil, read-out: IC50 for the human Cav3.2 T-type Ca2+ current.

T1 sequence (O95180 whole entry): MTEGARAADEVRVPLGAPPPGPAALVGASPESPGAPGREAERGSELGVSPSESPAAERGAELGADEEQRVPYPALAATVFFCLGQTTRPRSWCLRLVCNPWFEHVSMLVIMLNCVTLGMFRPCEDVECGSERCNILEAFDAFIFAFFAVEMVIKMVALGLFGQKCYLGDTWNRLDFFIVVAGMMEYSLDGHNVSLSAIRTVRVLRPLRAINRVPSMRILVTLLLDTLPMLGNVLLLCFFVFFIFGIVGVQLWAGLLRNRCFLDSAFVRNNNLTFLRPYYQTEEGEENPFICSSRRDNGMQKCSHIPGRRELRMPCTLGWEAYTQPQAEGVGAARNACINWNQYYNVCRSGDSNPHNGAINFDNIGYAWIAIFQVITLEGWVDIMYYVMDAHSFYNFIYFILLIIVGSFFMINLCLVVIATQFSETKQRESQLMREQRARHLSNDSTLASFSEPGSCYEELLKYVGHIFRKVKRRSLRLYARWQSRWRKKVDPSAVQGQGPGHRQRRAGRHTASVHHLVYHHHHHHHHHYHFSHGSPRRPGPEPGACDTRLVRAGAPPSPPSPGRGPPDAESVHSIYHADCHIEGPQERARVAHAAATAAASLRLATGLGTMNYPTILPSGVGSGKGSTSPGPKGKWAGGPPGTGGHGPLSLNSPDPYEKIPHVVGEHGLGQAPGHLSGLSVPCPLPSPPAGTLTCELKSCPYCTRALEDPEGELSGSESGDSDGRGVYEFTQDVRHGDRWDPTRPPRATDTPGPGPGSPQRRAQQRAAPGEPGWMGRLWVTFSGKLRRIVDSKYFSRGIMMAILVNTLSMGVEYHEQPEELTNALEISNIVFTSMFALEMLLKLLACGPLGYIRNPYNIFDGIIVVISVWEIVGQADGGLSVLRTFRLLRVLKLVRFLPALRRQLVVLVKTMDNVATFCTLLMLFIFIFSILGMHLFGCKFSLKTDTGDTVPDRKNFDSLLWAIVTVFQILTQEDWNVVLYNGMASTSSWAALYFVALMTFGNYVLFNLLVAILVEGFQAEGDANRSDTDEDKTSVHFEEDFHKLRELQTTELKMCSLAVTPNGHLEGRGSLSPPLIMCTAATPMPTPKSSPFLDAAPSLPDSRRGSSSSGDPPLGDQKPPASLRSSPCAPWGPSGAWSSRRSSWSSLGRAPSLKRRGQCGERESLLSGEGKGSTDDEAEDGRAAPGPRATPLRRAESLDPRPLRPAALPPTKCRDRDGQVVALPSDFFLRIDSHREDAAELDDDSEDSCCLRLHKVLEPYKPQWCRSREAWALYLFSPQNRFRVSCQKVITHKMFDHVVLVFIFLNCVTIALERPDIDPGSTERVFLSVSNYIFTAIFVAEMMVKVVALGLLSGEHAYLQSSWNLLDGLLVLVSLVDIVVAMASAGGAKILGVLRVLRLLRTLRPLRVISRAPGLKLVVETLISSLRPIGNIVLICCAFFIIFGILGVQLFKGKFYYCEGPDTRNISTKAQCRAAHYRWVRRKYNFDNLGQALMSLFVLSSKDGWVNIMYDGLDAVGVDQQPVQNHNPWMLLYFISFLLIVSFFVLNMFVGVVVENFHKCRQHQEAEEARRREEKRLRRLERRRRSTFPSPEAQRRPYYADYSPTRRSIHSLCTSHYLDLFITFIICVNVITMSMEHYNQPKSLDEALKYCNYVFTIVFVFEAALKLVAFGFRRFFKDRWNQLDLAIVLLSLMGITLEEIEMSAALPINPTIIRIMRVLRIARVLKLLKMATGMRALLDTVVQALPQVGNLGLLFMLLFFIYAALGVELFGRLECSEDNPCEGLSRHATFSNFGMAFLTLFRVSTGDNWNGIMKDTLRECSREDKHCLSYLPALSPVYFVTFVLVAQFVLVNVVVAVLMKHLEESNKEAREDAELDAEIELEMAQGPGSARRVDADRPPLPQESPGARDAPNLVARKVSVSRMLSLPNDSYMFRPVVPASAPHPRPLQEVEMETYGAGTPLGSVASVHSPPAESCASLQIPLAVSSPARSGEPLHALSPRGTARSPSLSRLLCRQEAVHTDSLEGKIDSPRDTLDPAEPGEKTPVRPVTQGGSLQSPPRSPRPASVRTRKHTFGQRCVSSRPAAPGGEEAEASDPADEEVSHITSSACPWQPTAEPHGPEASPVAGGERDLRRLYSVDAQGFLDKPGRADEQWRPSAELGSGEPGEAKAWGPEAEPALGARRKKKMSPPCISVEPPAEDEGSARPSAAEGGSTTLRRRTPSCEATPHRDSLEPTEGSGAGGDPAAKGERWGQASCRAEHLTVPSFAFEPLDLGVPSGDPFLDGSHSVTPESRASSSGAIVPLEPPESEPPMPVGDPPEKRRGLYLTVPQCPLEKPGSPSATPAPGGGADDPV

Broadly, the IC50 is the concentration needed to halve the response being measured. `CC(C)(C)c1nc2cc(C(=O)NC3CCC3)ccn2c1CC1CCCCC1` [Compound 15, 2-tert-Butyl-N-cyclobutyl-3-cyclohexylmethylimidazo[1,2-a]pyridine-7-carboxamide]: the “increase of the scratching behavior observed in the morphine-induced pruritus mice” value (shortened to “increase”) in test [1] is listed as “inhibited”. Moreover, in test [2], the IC50 is under 100 nM.
With `CC(C)c1nc2cc(C(=O)Nc3ccccc3)ccn2c1COC1CCCCC1` [Compound 21, 3-Cyclohexyloxymethyl-2-isopropyl-N-phenylimidazo[1,2-a]pyridine-7-carboxamide], the “increase” value in test [1] was “inhibited”. For the same compound, the IC50 in test [2] (setting [3]) is under 100 nM.
Take `CC(C)c1nc2cc(C(=O)Nc3ccncc3)ccn2c1COC1CCCCC1` [Compound 24, 3-Cyclohexyloxymethyl-2-isopropyl-N-(pyridin-4-yl)imidazo[1,2-a]pyridine-7-carboxamide]: in test [1], the “increase” value is reported as “inhibited”. In addition, in test [2] (setting [3]), the IC50 was under 100 nM.
With `CC(C)(C)c1nc2cc(C(=O)Nc3ccncc3)ccn2c1CC1CCC(F)(F)CC1` [Compound 34, 2-tert-Butyl-3-(4,4-difluorocyclohexylmethyl)-N-(pyridin-4-yl)imidazo[1,2-a]pyridine-7-carboxamide], the “increase” value in test [1] is given as “inhibited”. Further, in test [2], the IC50 is under 100 nM.
As to `O=C(Nc1ccncc1)c1ccn2c(CC3CCCCC3)c(C(F)(F)F)nc2c1` [Compound 35, 3-Cyclohexylmethyl-N-(pyridin-4-yl)-2-trifluoromethylimidazo[1,2-a]pyridine-7-carboxamide], the “increase” value in test [1] was “inhibited”. For the same compound, the IC50 in test [2] was under 100 nM.
With `CC(C)c1nc2cc(C(=O)Nc3ccncc3)ccn2c1S(=O)(=O)C1CCCCC1` [Compound 38, 3-Cyclohexylsulfonyl-2-isopropyl-N-(pyridin-4-yl)imidazo[1,2-a]pyridine-7-carboxamide], in test [1], the “increase” value is recorded as “inhibited”. Also, the IC50 in test [2] is under 100 nM.
For `CC(C)c1nc2cc(C(=O)Nc3ccccc3)ccn2c1S(=O)(=O)C1CCCCC1` [Compound 41, 3-Cyclohexylsulfonyl-2-isopropyl-N-phenylimidazo[1,2-a]pyridine-7-carboxamide] the same measures were “inhibited” and under 100 nM.
For the compound `Cc1cn2c(COC3CCCCC3)c(C(C)C)nc2cc1C(=O)Nc1ccncc1` [Compound 43, 3-Cyclohexyloxymethyl-2-isopropyl-6-methyl-N-(pyridin-4-yl)imidazo[1,2-a]pyridine-7-carboxamide], the “increase” value in test [1] is on record as “inhibited”. Besides, the IC50 in test [2] was under 100 nM.
For `O=C(NC1CCC1)c1ccn2c(CC3CCC(F)(F)CC3)c(C(F)(F)F)nc2c1` [Compound 50, N-Cyclobutyl-3-(4,4-difluorocyclohexylmethyl)-2-trifluoromethylimidazo[1,2-a]pyridine-7-carboxamide], in test [1], the “increase” value is “inhibited”. In addition, in test [2], the IC50 is under 100 nM.
Regarding `O=C(NC1CC(F)(F)C1)c1ccn2c(CC3CCC(F)(F)CC3)c(C(F)(F)F)nc2c1` [Compound 51, N-(3,3-Difluorocyclobutyl)-3-(4,4-difluorocyclohexylmethyl)-2-trifluoromethylimidazo[1,2-a]pyridine-7-carboxamide], in test [1], the “increase” value is “inhibited”. Besides, the IC50 in test [2] was under 100 nM.
For `CC1(NC(=O)c2ccn3c(CC4CCC(F)(F)CC4)c(C(F)(F)F)nc3c2)CCOCC1` [Compound 52, 3-(4,4-Difluorocyclohexylmethyl)-N-(4-methyltetrahydro-2H-pyran-4-yl)-2-trifluoromethylimidazo[1,2-a]pyridine-7-carboxamide] the same measures were “inhibited” and under 100 nM.
Regarding `Cc1cc(C(=O)NC2CCC(O)CC2)cc2nc(C(F)(F)F)c(CC3CCC(F)(F)CC3)n12` (stereo not drawn) [Compound 70, 3-(4,4-Difluorocyclohexylmethyl)-N-(4-hydroxycyclohexyl)-5-methyl-2-trifluoromethylimidazo[1,2-a]pyridine-7-carboxamide], the “increase” value in test [1] was “inhibited”. In addition, in test [2], the concentration for half-maximal inhibition (IC50) was under 100 nM.
Taken in the same sequence, the figures for `Cc1cc(C(=O)NC2CCC(F)(F)CC2)cc2nc(C(F)(F)F)c(CC3CCC(F)(F)CC3)n12` [Compound 72, N-(4,4-Difluorocyclohexyl)-3-(4,4-difluorocyclohexylmethyl)-5-methyl-2-trifluoromethylimidazo[1,2-a]pyridine-7-carboxamide] were “inhibited” and under 100 nM.
For `Cc1cc(C(=O)NC2CCOC2)cc2nc(C(F)(F)F)c(CC3CCC(F)(F)CC3)n12` (stereo not drawn) [Compound 73, 3-(4,4-Difluorocyclohexylmethyl)-5-methyl-N-(tetrahydrofuran-3-yl)-2-trifluoromethylimidazo[1,2-a]pyridine-7-carboxamide], the “increase” value in test [1] is listed as “inhibited”. Besides, the IC50 in test [2] is under 100 nM.
Turning to `Cc1cc(C(=O)NC2CCOC(C)(C)C2)cc2nc(C(F)(F)F)c(CC3CCC(F)(F)CC3)n12` (stereo not drawn) [Compound 75, 3-(4,4-Difluorocyclohexylmethyl)-N-(2,2-dimethyltetrahydro-2H-pyran-4-yl)-5-methyl-2-trifluoromethylimidazo[1,2-a]pyridine-7-carboxamide], in test [1], the “increase” value is given as “inhibited”. In test [2] (setting [3]), the IC50 is under 100 nM.
For the compound `Cc1cc(C(=O)NC2CCCOC2)cc2nc(C(F)(F)F)c(CC3CCC(F)(F)CC3)n12` (stereo not drawn) [Compound 76, 3-(4,4-Difluorocyclohexylmethyl)-5-methyl-N-(tetrahydro-2H-pyran-3-yl)-2-trifluoromethylimidazo[1,2-a]pyridine-7-carboxamide], in test [1], the “increase” value is reported as “inhibited”. The IC50 in test [2] (setting [3]) was under 100 nM.
For `Cc1cc(C(=O)NCC(C)(C)O)cc2nc(C(F)(F)F)c(CC3CCC(F)(F)CC3)n12` [Compound 78, 3-(4,4-Difluorocyclohexylmethyl)-N-(2-hydroxy-2-methylpropyl)-5-methyl-2-trifluoromethylimidazo[1,2-a]pyridine-7-carboxamide], the “increase” value in test [1] is reported as “inhibited”. Further, the IC50 in test [2] was under 100 nM.
For `COC(C)(C)CNC(=O)c1cc(C)n2c(CC3CCC(F)(F)CC3)c(C(F)(F)F)nc2c1` [Compound 79, 3-(4,4-Difluorocyclohexylmethyl)-N-(2-methoxy-2-methylpropyl)-5-methyl-2-trifluoromethylimidazo[1,2-a]pyridine-7-carboxamide], the “increase” value in test [1] is on record as “inhibited”. For the same compound, the IC50 in test [2] is under 100 nM.
Consider `Cc1cc(C(=O)NCC2CCOC2)cc2nc(C(F)(F)F)c(CC3CCC(F)(F)CC3)n12` (stereo not drawn) [Compound 80, 3-(4,4-Difluorocyclohexylmethyl)-N-{(tetrahydrofuran-3-yl)methyl}-5-methyl-2-trifluoromethylimidazo[1,2-a]pyridine-7-carboxamide], for which the “increase” value in test [1] is “inhibited”. Besides, in test [2], the IC50 was under 100 nM.
On to `Cc1cc(C(=O)NCC2CCOCC2)cc2nc(C(F)(F)F)c(CC3CCC(F)(F)CC3)n12` [Compound 81, 3-(4,4-Difluorocyclohexylmethyl)-5-methyl-N-{(tetrahydro-2H-pyran-4-yl)methyl}-2-trifluoromethylimidazo[1,2-a]pyridine-7-carboxamide], for which the “increase” value in test [1] is “inhibited”. In addition, in test [2], the IC50 was under 100 nM.
For the compound `Cc1cc(C(=O)NCC2(C#N)CCOCC2)cc2nc(C(F)(F)F)c(CC3CCC(F)(F)CC3)n12` [Compound 84, N-{(4-Cyanotetrahydro-2H-pyran-4-yl)methyl}-3-(4,4-difluorocyclohexylmethyl)-5-methyl-2-trifluoromethylimidazo[1,2-a]pyridine-7-carboxamide], the “increase” value in test [1] is “inhibited”. For the same compound, the IC50 in test [2] is under 100 nM.
Turning to `Cc1cc(C(=O)NC2CCOCC2)cc2nc(C(C)(F)F)c(CC3CCC(F)(F)CC3)n12` [Compound 96, 3-(4,4-Difluorocyclohexylmethyl)-2-(1,1-difluoroethyl)-5-methyl-N-(tetrahydro-2H-pyran-4-yl)imidazo[1,2-a]pyridine-7-carboxamide], the “increase” value in test [1] is “inhibited”. For the same compound, the IC50 in test [2] is under 100 nM.
For the compound `Cc1cc(C(=O)NC2CCOCC2)cc2nc(C3(C)CC3)c(CC3CCC(F)(F)CC3)n12` [Compound 100, 3-(4,4-Difluorocyclohexylmethyl)-5-methyl-2-(1-methylcyclopropyl)-N-(tetrahydro-2H-pyran-4-yl)imidazo[1,2-a]pyridine-7-carboxamide], in test [1], the “increase” value is listed as “inhibited”. For the same compound, the IC50 in test [2] was under 100 nM.
Take `Cc1cc(C(=O)NC2CCOCC2)cc2nc(C(C)C)c(CC3CCC(F)(F)CC3)n12` [Compound 101, 3-(4,4-Difluorocyclohexylmethyl)-2-isopropyl-5-methyl-N-(tetrahydro-2H-pyran-4-yl)imidazo[1,2-a]pyridine-7-carboxamide]: in test [1], the “increase” value is on record as “inhibited”. In addition, in test [2], the IC50 is under 100 nM.
